Results reported in publication PMC7064328 (Environmental Health Perspectives, 2020).

System: placenta
Test: Placental histopathology
Format: in vivo, mouse (CD-1)
Details: for Lowest dose tested resulting in adverse placental pathology: this study
Protocol: Dam livers, kidneys, and placentas were trimmed and embedded by the NIEHS Mouse Embryo Phenotyping Core. Tissues collected at necropsy were fixed in 4% PFA for 72 h and paraffin embedded, and 5-μm sections were prepared and stained with hematoxylin and eosin (H&E). Pathology was evaluated and a pathology review conducted by S.A.E. Diplomate American College of Veterinary Pathologists (DACVP). Pathology reviews were conducted as an informed approach analysis [e.g., nonblinded analysis; see Sills et al. ([2019])]. Select tissue slides were scanned using the AT2 Scanner (Aperio). Images were then captured for publication using the ImageScope software; version 12.3.0.5056 (Aperio). Serum and urine obtained from dams in Block 2 were analyzed using the AU480 clinical chemistry analyzer (Beckman Coulter Inc.). Reagents and calibration standards used to measure alkaline phosphatase (ALP), alanine aminotransferase (ALT), aspartate aminotransferase (AST), blood urea nitrogen (BUN), serum creatinine, urine creatinine, glucose (Glu), total protein (TP), triglyceride (Trig), high-density lipoprotein (HDL), cholesterol (Chol), and albumin (ALB) were purchased from Beckman Coulter Inc. Reagents for sorbitol dehydrogenase (SDH), total bile acid (TBA), and micro-TP were purchased from Sekisui Diagnostics. The reagent used to measure low-density lipoprotein (LDL) was purchased form Diazyme Laboratories.
Histopathological lesions of evaluated placenta were evaluated using two statistical approaches. The first approach assumed the absence of litter effects and considered each placenta evaluated within a treatment group to be a totally independent observation, regardless of its litter of origin. […] The second approach considered the litter as the biological unit and compared the relative incidence of placental lesions [e.g., percent within normal limits (WNL)] to adjust for differences in the total number of observations across litters within and between treatment groups. […] Both approaches were subjected to simultaneous tests for general linear hypotheses to correct for multiple comparisons using Tukey contrasts in the package multcomp ([Hothorn et al. 2009]).

N.O=C(O)C(F)(OC(F)(F)C(F)(F)C(F)(F)F)C(F)(F)F (centres unmarked) [GenX, ammonium 2,3,3,3-tetrafluoro-2-(heptafluoropropoxy)propanoate]
Early fibrin clot: No. (E11.5, 2 mg/kg/d): 1
Labyrinth atrophy: % (E11.5, 2 mg/kg/d): 0%
Labyrinth atrophy: No. (E11.5, 2 mg/kg/d): 0
Labyrinth congestion: % (E11.5, 2 mg/kg/d): 0%
Labyrinth congestion: No. (E11.5, 2 mg/kg/d): 0
Labyrinth necrosis: % (E11.5, 2 mg/kg/d): 0%
Labyrinth necrosis: No. (E11.5, 2 mg/kg/d): 0
Mean WNL per litter (%) (E11.5, 2 mg/kg/d): 95.6%
Mean WNL ± SD per litter (E11.5, 2 mg/kg/d): 8.2 ± 2.8
Mean abnormal per litter (%) (E11.5, 2 mg/kg/d): 4.4%
Mean abnormal ± SD per litter (E11.5, 2 mg/kg/d): 0.4 ± 0.9
Other placental lesions: % (E11.5, 2 mg/kg/d): 2.3%
Other placental lesions: No. (E11.5, 2 mg/kg/d): 1
Placental nodule: % (E11.5, 2 mg/kg/d): 0%
Placental nodule: No. (E11.5, 2 mg/kg/d): 0
Placentas WNL: % (E11.5, 2 mg/kg/d): 95.3%
Placentas WNL: No. (E11.5, 2 mg/kg/d): 41
Placentas abnormal: % (E11.5, 2 mg/kg/d): 4.7%
Placentas abnormal: No. (E11.5, 2 mg/kg/d): 2
Early fibrin clot: % (E11.5, 10 mg/kg/d): 0%
Early fibrin clot: No. (E11.5, 10 mg/kg/d): 0
Labyrinth atrophy: % (E11.5, 10 mg/kg/d): 0%
Labyrinth atrophy: No. (E11.5, 10 mg/kg/d): 0
Labyrinth congestion: % (E11.5, 10 mg/kg/d): 0%
Labyrinth congestion: No. (E11.5, 10 mg/kg/d): 0
Labyrinth necrosis: % (E11.5, 10 mg/kg/d): 0%
Labyrinth necrosis: No. (E11.5, 10 mg/kg/d): 0
Mean WNL per litter (%) (E11.5, 10 mg/kg/d): 97.1%
Mean WNL ± SD per litter (E11.5, 10 mg/kg/d): 6.0 ± 3.1
Mean abnormal per litter (%) (E11.5, 10 mg/kg/d): 0%
Mean abnormal ± SD per litter (E11.5, 10 mg/kg/d): 0 ± 0.0
Other placental lesions: % (E11.5, 10 mg/kg/d): 0%
Other placental lesions: No. (E11.5, 10 mg/kg/d): 0
Placental nodule: % (E11.5, 10 mg/kg/d): 0%
Placental nodule: No. (E11.5, 10 mg/kg/d): 0
Placentas WNL: % (E11.5, 10 mg/kg/d): 100%
Placentas WNL: No. (E11.5, 10 mg/kg/d): 30
Placentas abnormal: % (E11.5, 10 mg/kg/d): 0.0%
Placentas abnormal: No. (E11.5, 10 mg/kg/d): 0
Early fibrin clot: % (E17.5, 2 mg/kg/d): 3.2%
Early fibrin clot: No. (E17.5, 2 mg/kg/d): 1
Labyrinth atrophy: % (E17.5, 2 mg/kg/d): 48.4%
Labyrinth atrophy: No. (E17.5, 2 mg/kg/d): 15
Labyrinth congestion: % (E17.5, 2 mg/kg/d): 3.2%
Labyrinth congestion: No. (E17.5, 2 mg/kg/d): 1
Labyrinth necrosis: % (E17.5, 2 mg/kg/d): 0%
Labyrinth necrosis: No. (E17.5, 2 mg/kg/d): 0
Mean WNL per litter (%) (E17.5, 2 mg/kg/d): 51.7%
Mean WNL ± SD per litter (E17.5, 2 mg/kg/d): 2.6 ± 2.8
Mean abnormal per litter (%) (E17.5, 2 mg/kg/d): 48.3%
Mean abnormal ± SD per litter (E17.5, 2 mg/kg/d): 3.6 ± 3.6
Other placental lesions: % (E17.5, 2 mg/kg/d): 0%
Other placental lesions: No. (E17.5, 2 mg/kg/d): 0
Placental nodule: % (E17.5, 2 mg/kg/d): 3.2%
Placental nodule: No. (E17.5, 2 mg/kg/d): 1
Placentas WNL: % (E17.5, 2 mg/kg/d): 41.9%
Placentas WNL: No. (E17.5, 2 mg/kg/d): 13
Placentas abnormal: % (E17.5, 2 mg/kg/d): 58.1%
Placentas abnormal: No. (E17.5, 2 mg/kg/d): 18
Early fibrin clot: % (E17.5, 10 mg/kg/d): 11.4%
Early fibrin clot: No. (E17.5, 10 mg/kg/d): 4
Labyrinth atrophy: % (E17.5, 10 mg/kg/d): 45.7%
Labyrinth atrophy: No. (E17.5, 10 mg/kg/d): 16
Labyrinth congestion: % (E17.5, 10 mg/kg/d): 22.9%
Labyrinth congestion: No. (E17.5, 10 mg/kg/d): 8
Labyrinth necrosis: % (E17.5, 10 mg/kg/d): 2.9%
Labyrinth necrosis: No. (E17.5, 10 mg/kg/d): 1
Mean WNL per litter (%) (E17.5, 10 mg/kg/d): 12.0%
Mean WNL ± SD per litter (E17.5, 10 mg/kg/d): 1.2 ± 2.7
Mean abnormal per litter (%) (E17.5, 10 mg/kg/d): 88.0%
Mean abnormal ± SD per litter (E17.5, 10 mg/kg/d): 5.8 ± 3.0
Other placental lesions: % (E17.5, 10 mg/kg/d): 0%
Other placental lesions: No. (E17.5, 10 mg/kg/d): 0
Placental nodule: % (E17.5, 10 mg/kg/d): 0%
Placental nodule: No. (E17.5, 10 mg/kg/d): 0
Placentas WNL: % (E17.5, 10 mg/kg/d): 17.1%
Placentas WNL: No. (E17.5, 10 mg/kg/d): 6
Placentas abnormal: % (E17.5, 10 mg/kg/d): 82.9%
Placentas abnormal: No. (E17.5, 10 mg/kg/d): 29
Lowest dose tested resulting in adverse placental pathology: 2 mg/kg/d

O=C(O)C(F)(F)C(F)(F)C(F)(F)C(F)(F)C(F)(F)C(F)(F)C(F)(F)F [PFOA, Perfluorooctanoic acid]
Early fibrin clot: % (E11.5, 1 mg/kg/d): 0%
Early fibrin clot: No. (E11.5, 1 mg/kg/d): 0
Labyrinth atrophy: % (E11.5, 1 mg/kg/d): 0%
Labyrinth atrophy: No. (E11.5, 1 mg/kg/d): 0
Labyrinth congestion: % (E11.5, 1 mg/kg/d): 0%
Labyrinth congestion: No. (E11.5, 1 mg/kg/d): 0
Labyrinth necrosis: % (E11.5, 1 mg/kg/d): 0%
Labyrinth necrosis: No. (E11.5, 1 mg/kg/d): 0
Mean WNL per litter (%) (E11.5, 1 mg/kg/d): 98.0%
Mean WNL ± SD per litter (E11.5, 1 mg/kg/d): 6.4 ± 1.9
Mean abnormal per litter (%) (E11.5, 1 mg/kg/d): 2.0%
Mean abnormal ± SD per litter (E11.5, 1 mg/kg/d): 0.2 ± 0.4
Other placental lesions: % (E11.5, 1 mg/kg/d): 3.0%
Other placental lesions: No. (E11.5, 1 mg/kg/d): 1
Placental nodule: % (E11.5, 1 mg/kg/d): 0%
Placental nodule: No. (E11.5, 1 mg/kg/d): 0
Placentas WNL: % (E11.5, 1 mg/kg/d): 97.0%
Placentas WNL: No. (E11.5, 1 mg/kg/d): 32
Placentas abnormal: % (E11.5, 1 mg/kg/d): 3.0%
Placentas abnormal: No. (E11.5, 1 mg/kg/d): 4
Early fibrin clot: % (E11.5, 5 mg/kg/d): 0%
Early fibrin clot: No. (E11.5, 5 mg/kg/d): 0
Labyrinth atrophy: % (E11.5, 5 mg/kg/d): 8.3%
Labyrinth atrophy: No. (E11.5, 5 mg/kg/d): 3
Labyrinth congestion: % (E11.5, 5 mg/kg/d): 0%
Labyrinth congestion: No. (E11.5, 5 mg/kg/d): 0
Labyrinth necrosis: % (E11.5, 5 mg/kg/d): 2.7%
Labyrinth necrosis: No. (E11.5, 5 mg/kg/d): 1
Mean WNL per litter (%) (E11.5, 5 mg/kg/d): 88.3%
Mean WNL ± SD per litter (E11.5, 5 mg/kg/d): 6.4 ± 1.7
Mean abnormal per litter (%) (E11.5, 5 mg/kg/d): 11.7%
Mean abnormal ± SD per litter (E11.5, 5 mg/kg/d): 1.0 ± 1.4
Other placental lesions: % (E11.5, 5 mg/kg/d): 0%
Other placental lesions: No. (E11.5, 5 mg/kg/d): 0
Placental nodule: % (E11.5, 5 mg/kg/d): 0%
Placental nodule: No. (E11.5, 5 mg/kg/d): 0
Placentas WNL: % (E11.5, 5 mg/kg/d): 88.9%
Placentas WNL: No. (E11.5, 5 mg/kg/d): 32
Placentas abnormal: % (E11.5, 5 mg/kg/d): 11.1%
Placentas abnormal: No. (E11.5, 5 mg/kg/d): 4
Early fibrin clot: % (E17.5, 1 mg/kg/d): 0%
Early fibrin clot: No. (E17.5, 1 mg/kg/d): 0
Labyrinth atrophy: % (E17.5, 1 mg/kg/d): 0%
Labyrinth atrophy: No. (E17.5, 1 mg/kg/d): 0
Labyrinth congestion: % (E17.5, 1 mg/kg/d): 0%
Labyrinth congestion: No. (E17.5, 1 mg/kg/d): 0
Labyrinth necrosis: % (E17.5, 1 mg/kg/d): 3.1%
Labyrinth necrosis: No. (E17.5, 1 mg/kg/d): 1
Mean WNL per litter (%) (E17.5, 1 mg/kg/d): 91.4%
Mean WNL ± SD per litter (E17.5, 1 mg/kg/d): 5.8 ± 1.3
Mean abnormal per litter (%) (E17.5, 1 mg/kg/d): 8.6%
Mean abnormal ± SD per litter (E17.5, 1 mg/kg/d): 0.6 ± 0.9
Other placental lesions: % (E17.5, 1 mg/kg/d): 0%
Other placental lesions: No. (E17.5, 1 mg/kg/d): 0
Placental nodule: % (E17.5, 1 mg/kg/d): 6.3%
Placental nodule: No. (E17.5, 1 mg/kg/d): 2
Placentas WNL: % (E17.5, 1 mg/kg/d): 90.6%
Placentas WNL: No. (E17.5, 1 mg/kg/d): 29
Placentas abnormal: % (E17.5, 1 mg/kg/d): 9.4%
Placentas abnormal: No. (E17.5, 1 mg/kg/d): 3
Early fibrin clot: % (E17.5, 5 mg/kg/d): 2.5%
Early fibrin clot: No. (E17.5, 5 mg/kg/d): 1
Labyrinth atrophy: % (E17.5, 5 mg/kg/d): 7.5%
Labyrinth atrophy: No. (E17.5, 5 mg/kg/d): 3
Labyrinth congestion: % (E17.5, 5 mg/kg/d): 57.5%
Labyrinth congestion: No. (E17.5, 5 mg/kg/d): 23
Labyrinth necrosis: % (E17.5, 5 mg/kg/d): 0%
Labyrinth necrosis: No. (E17.5, 5 mg/kg/d): 0
Mean WNL per litter (%) (E17.5, 5 mg/kg/d): 38.1%
Mean WNL ± SD per litter (E17.5, 5 mg/kg/d): 2.2 ± 2.7
Mean abnormal per litter (%) (E17.5, 5 mg/kg/d): 61.9%
Mean abnormal ± SD per litter (E17.5, 5 mg/kg/d): 4.5 ± 3.8
Other placental lesions: % (E17.5, 5 mg/kg/d): 0%
Other placental lesions: No. (E17.5, 5 mg/kg/d): 0
Placental nodule: % (E17.5, 5 mg/kg/d): 0%
Placental nodule: No. (E17.5, 5 mg/kg/d): 0
Placentas WNL: % (E17.5, 5 mg/kg/d): 32.5%
Placentas WNL: No. (E17.5, 5 mg/kg/d): 13
Placentas abnormal: % (E17.5, 5 mg/kg/d): 67.5%
Placentas abnormal: No. (E17.5, 5 mg/kg/d): 27
Lowest dose tested resulting in adverse placental pathology: 5 mg/kg/d
